Measured values published in US6737383B1, “Herbicidal oxadiazolidines” (priority 1999, dated 2004).

Legend:
duck salad = test: Test B flood test duck salad; format: in vivo, Heteranthera limosa
Method in brief: (§1)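 Each value is a visual injury score relative to controls, with 10 meaning complete control and 0 no effect. Evaluation took place twelve to sixteen days after the 2-leaf-stage plants were treated and kept in the greenhouse.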

rape = test: Test B pre/postemergence rape; format: in vivo, Brassica napus
Method in brief: (§2)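 Response is a visual 0-to-10 score relative to untreated plants, where 0 means no effect and 10 means complete control, taken twelve to sixteen days after application. Treatments went onto soil at planting and onto foliage of 1- to 4-leaf plants, using a surfactant-containing non-phytotoxic solvent.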

bedstraw = test: Test B pre/postemergence bedstraw; format: in vivo, Galium aparine
Method in brief: as §2

wheat = test: Test B pre/postemergence wheat; format: in vivo, Triticum aestivum
Method in brief: as §2

purple nutsedge = test: Test B pre/postemergence purple nutsedge; format: in vivo, Cyperus rotundus
Method in brief: as §2

soybean = test: Test B pre/postemergence soybean; format: in vivo, Glycine max
Method in brief: as §2

crabgrass = test: Test B pre/postemergence crabgrass; format: in vivo, Digitaria sanguinalis
Method in brief: as §2

wild oat = test: Test B pre/postemergence wild oat; format: in vivo, Avena fatua
Method in brief: as §2

velvetleaf = test: Test B pre/postemergence velvetleaf; format: in vivo, Abutilon theophrasti
Method in brief: as §2

smallflower flatsedge = test: Test B flood test smallflower flatsedge; format: in vivo, Cyperus difformis
Method in brief: as §1

giant foxtail = test: Test B pre/postemergence giant foxtail; format: in vivo, Setaria faberii
Method in brief: as §2

morningglory = test: Test B pre/postemergence morningglory; format: in vivo, Ipomoea hederacea
Method in brief: as §2

rice = test: Test B flood test rice; format: in vivo, Oryza sativa
Method in brief: as §1

blackgrass = test: Test B pre/postemergence blackgrass; format: in vivo, Alopecurus myosuroides
Method in brief: as §2

corn = test: Test B pre/postemergence corn; format: in vivo, Zea mays
Method in brief: as §2

surinam grass = test: Test B pre/postemergence surinam grass; format: in vivo, Brachiaria decumbens
Method in brief: as §2

[1] = Postemergence, Rate 62 g/ha, scale 0 to 10, 0 is no effect, 10 is complete control
[2] = Rate 125 g/ha, Postemergence section (flood test species), scale 0 to 10, 0 no effect, 10 complete control
[3] = Rate 500 g/ha, listed under Postemergence (flood test species), scale 0 to 10, 0 no effect, 10 complete control
[4] = flood test, listed under Postemergence, Rate 250 g/ha, scale 0 to 10, 0 no effect, 10 complete control
[5] = Postemergence, Rate 250 g/ha, scale 0 to 10, 0 no effect, 10 complete control
[6] = Preemergence, Rate 62 g/ha, scale 0 to 10 (0 no effect, 10 complete control)
[7] = Preemergence, Rate 125 g/ha, scale 0 to 10 (0 no effect, 10 complete control)
[8] = Preemergence, Rate 250 g/ha, scale of 0 to 10 where 0 is no effect and 10 is complete control
[9] = Preemergence, Rate 500 g/ha, scale 0 (no effect) to 10 (complete control)
[10] = Rate 125 g/ha, Postemergence, scale 0 to 10, 0 no effect, 10 complete control
[11] = Rate 500 g/ha, Postemergence, scale 0 to 10, 0 no effect, 10 complete control

Cc1ccccc1Cn1c(=O)on(C(=O)N(C)c2ccccc2)c1=O [Compound 85]
0: Ducksalad plant response rating (duck salad; [1]) | Ducksalad plant response rating (duck salad; [2]) | Ducksalad plant response rating (duck salad; [3]) | Ducksalad plant response rating (duck salad; [4]) | Rape plant response rating (rape; [1]) | Rape plant response rating (rape; [5]) | Rape plant response rating (rape; [6]) | Plant response rating, Rape (rape; [7]) | Plant response rating, Rape (rape; [8]) | Rape plant response rating (rape; [9]) | Rape plant response rating (rape; [10]) | Rape plant response rating (rape; [11]) | Bedstraw plant response rating (bedstraw; [1]) | Bedstraw plant response rating (bedstraw; [5]) | Bedstraw plant response rating (bedstraw; [6]) | Plant response rating, Bedstraw (bedstraw; [7]) | Plant response rating, Bedstraw (bedstraw; [8]) | Bedstraw plant response rating (bedstraw; [9]) | Bedstraw plant response rating (bedstraw; [10]) | Bedstraw plant response rating (bedstraw; [11]) | Wheat plant response rating (wheat; [1]) | Wheat plant response rating (wheat; [5]) | Wheat plant response rating (wheat; [6]) | Plant response rating, Wheat (wheat; [7]) | Plant response rating, Wheat (wheat; [8]) | Wheat plant response rating (wheat; [9]) | Wheat plant response rating (wheat; [10]) | Wheat plant response rating (wheat; [11]) | Nutsedge plant response rating (purple nutsedge; [1]) | Nutsedge plant response rating (purple nutsedge; [5]) | Nutsedge plant response rating (purple nutsedge; [6]) | Plant response rating, Nutsedge (purple nutsedge; [7]) | Plant response rating, Nutsedge (purple nutsedge; [8]) | Nutsedge plant response rating (purple nutsedge; [9]) | Nutsedge plant response rating (purple nutsedge; [10]) | Nutsedge plant response rating (purple nutsedge; [11]) | Soybean plant response rating (soybean; [1]) | Soybean plant response rating (soybean; [5]) | Soybean plant response rating (soybean; [6]) | Plant response rating, Soybean (soybean; [7]) | Plant response rating, Soybean (soybean; [8]) | Soybean plant response rating (soybean; [9]) | Soybean plant response rating (soybean; [10]) | Soybean plant response rating (soybean; [11]) | Crabgrass plant response rating (crabgrass; [1]) | Crabgrass plant response rating (crabgrass; [5]) | Crabgrass plant response rating (crabgrass; [6]) | Plant response rating, Crabgrass (crabgrass; [7]) | Plant response rating, Crabgrass (crabgrass; [8]) | Crabgrass plant response rating (crabgrass; [9]) | Crabgrass plant response rating (crabgrass; [10]) | Crabgrass plant response rating (crabgrass; [11]) | Wild oats plant response rating (wild oat; [1]) | Wild oats plant response rating (wild oat; [5]) | Wild oats plant response rating (wild oat; [6]) | Plant response rating, Wild oats (wild oat; [7]) | Plant response rating, Wild oats (wild oat; [8]) | Wild oats plant response rating (wild oat; [9]) | Wild oats plant response rating (wild oat; [10]) | Wild oats plant response rating (wild oat; [11]) | Velvetleaf plant response rating (velvetleaf; [1]) | Velvetleaf plant response rating (velvetleaf; [5]) | Velvetleaf plant response rating (velvetleaf; [6]) | Plant response rating, Velvetleaf (velvetleaf; [7]) | Plant response rating, Velvetleaf (velvetleaf; [8]) | Velvetleaf plant response rating (velvetleaf; [9]) | Velvetleaf plant response rating (velvetleaf; [10]) | Velvetleaf plant response rating (velvetleaf; [11]) | S. Flatsedge plant response rating (smallflower flatsedge; [1]) | S. Flatsedge plant response rating (smallflower flatsedge; [2]) | S. Flatsedge plant response rating (smallflower flatsedge; [3]) | S. Flatsedge plant response rating (smallflower flatsedge; [4]) | Giant foxtail plant response rating (giant foxtail; [1]) | Giant foxtail plant response rating (giant foxtail; [5]) | Giant foxtail plant response rating (giant foxtail; [6]) | Plant response rating, Giant foxtail (giant foxtail; [7]) | Plant response rating, Giant foxtail (giant foxtail; [8]) | Giant foxtail plant response rating (giant foxtail; [9]) | Giant foxtail plant response rating (giant foxtail; [10]) | Giant foxtail plant response rating (giant foxtail; [11]) | Morningglory plant response rating (morningglory; [1]) | Morningglory plant response rating (morningglory; [5]) | Morningglory plant response rating (morningglory; [6]) | Plant response rating, Morningglory (morningglory; [7]) | Plant response rating, Morningglory (morningglory; [8]) | Morningglory plant response rating (morningglory; [9]) | Morningglory plant response rating (morningglory; [10]) | Morningglory plant response rating (morningglory; [11]) | Rice plant response rating (rice; [1]) | Rice plant response rating (rice; [2]) | Rice plant response rating (rice; [3]) | Rice plant response rating (rice; [4]) | Blackgrass plant response rating (blackgrass; [1]) | Blackgrass plant response rating (blackgrass; [5]) | Blackgrass plant response rating (blackgrass; [6]) | Plant response rating, Blackgrass (blackgrass; [7]) | Plant response rating, Blackgrass (blackgrass; [8]) | Blackgrass plant response rating (blackgrass; [9]) | Blackgrass plant response rating (blackgrass; [10]) | Blackgrass plant response rating (blackgrass; [11]) | Corn plant response rating (corn; [1]) | Corn plant response rating (corn; [5]) | Corn plant response rating (corn; [6]) | Plant response rating, Corn (corn; [7]) | Plant response rating, Corn (corn; [8]) | Corn plant response rating (corn; [9]) | Corn plant response rating (corn; [10]) | Corn plant response rating (corn; [11]) | B. signalgrass plant response rating (surinam grass; [1]) | B. signalgrass plant response rating (surinam grass; [5]) | B. signalgrass plant response rating (surinam grass; [6]) | Plant response rating, B. signalgrass (surinam grass; [7]) | Plant response rating, B. signalgrass (surinam grass; [8]) | B. signalgrass plant response rating (surinam grass; [9]) | B. signalgrass plant response rating (surinam grass; [10]) | B. signalgrass plant response rating (surinam grass; Rate 500 g/ha, Postemergence, scale of 0 to 10 where 0 is no effect and 10 is complete control)
